Reference: patent US12673945B2, “3-((8-((1H-pyrazol-4-yl)amino)imidazo[1,2-a]pyridin-3-yl)ethinyl)-n-phenylbenzamide derivative, method for preparing same, and pharmaceutical composition containing same as active ingredient for prevention or treatment of cancer” (DAEGU-GYEONGBUK MEDICAL INNOVATION FOUNDATION, priority 2020, dated 2026)

Key:
[1] = oral pharmacokinetic test; type: in vivo, ICR mice; conditions: ICR, mouse, plasma, 10 mg/kg, 10 mg/Kg PO
Method: To evaluate the pharmacokinetic properties in vivo, oral pharmacokinetic test was performed with the compounds of Comparative Examples 1 and 4 and Examples 1 and 4 using mice and rats, and the PK parameters are shown in Table 10.
ICR mice (6-7 weeks old) and SD rats (6-7 weeks old) were used for the test. The fasted group was fasted about 16 hours before oral administration, and the fed group was fasted about 4 hours before oral administration. The test drug for oral administration was used by dissolving the drug in a vehicle at a concentration of 1 mg/mL for use, and blood samples were collected (time point: 0.25, 0.5, 1, 2, 4, 8, 12, 24, 32, n=3) from the heart (mouse, 500 μL/time point) or jugular vein (rat, 120 μL/time point). Blood was centrifuged at 12,000 G at 4° C. for 2 minutes to separate plasma, and stored at −80° C. until analysis. • Vehicle A (NMP:PEG400=5:95) • Vehicle B (0.5% methyl cellulose) 6-2. Sampling and Pretreatment
To 20 μl of plasma, 180 μl of acetonitrile (including internal standard) was added. The mixture was vortexed and centrifuged for 5 minutes at 15,000 rpm at 4° C. The supernatant obtained after centrifugation was analyzed by LC-MS/MS.
PK parameters were calculated with a non-compartmental analysis model using Phoenix WinNonlin 6.4 version (Pharsight, USA) program.

KOPM28 cells = assay: human CML cell proliferation inhibition; type: cell-based; conditions: 72 hours, Cell Counting Kit-8
Procedure, shortened: (§1)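 Read-out: CCK-8, A450 after 2 h, expressed as % of vehicle-treated cells; GI50 fitted from 9-point curves. Compound exposure 72 h at 37 °C, final 0–10 μM, 5-fold dilutions. Bcr-Abl lines TCCS/KOPM28; T315I-Bcr-Abl lines T315I-TCCS/T315I-KOPM28.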

T315I-KOPM28 cells = assay: human CML cell proliferation inhibition; type: cell-based; conditions: 72 hours, Cell Counting Kit-8
Procedure, shortened: as §1

TCCS cells = assay: human CML cell proliferation inhibition; type: cell-based; conditions: 72 hours, Cell Counting Kit-8
Procedure, shortened: as §1

T315I-TCCS cells = assay: human CML cell proliferation inhibition; type: cell-based; conditions: 72 hours, Cell Counting Kit-8
Procedure, shortened: as §1

MAP4K5 = molecular target: T1, MAP4K5 (Homo sapiens, UniProt Q9Y4K4); assay: scanMAX Kinase panel (DiscoverX); type: binding; conditions: read-out: % Cont @ 1 uM
T1 construct: purchased DiscoverX scanMAX Kinase panel
Procedure, shortened: (§2)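 Cmpd 1 μM (DMSO) vs kinase; readout % control = (cmpd − pos ctrl)/(neg ctrl − pos ctrl) × 100.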

CDKL2 = molecular target: T2, CDKL2 (Homo sapiens, UniProt Q92772); assay: scanMAX Kinase panel (DiscoverX); type: binding; conditions: read-out: % Cont @ 1 uM
T2 construct: purchased DiscoverX scanMAX Kinase panel
Procedure, shortened: as §2

EGFR(L861Q) = molecular target: T3, EGFR(L861Q) (Homo sapiens, UniProt P00533, L861Q); assay: scanMAX Kinase panel (DiscoverX); type: binding
T3 construct: purchased DiscoverX scanMAX Kinase panel
Procedure, shortened: as §2

RIPK1 = molecular target: T4, RIPK1 (Homo sapiens, UniProt Q13546); assay: scanMAX Kinase panel (DiscoverX); type: binding; conditions: read-out: % Cont @ 1 uM
T4 construct: purchased DiscoverX scanMAX Kinase panel
Procedure, shortened: as §2

JNK2 = molecular target: T5, JNK2 (Homo sapiens, UniProt P45984); assay: scanMAX Kinase panel (DiscoverX); type: binding
T5 construct: purchased DiscoverX scanMAX Kinase panel
Procedure, shortened: as §2

CSF1R = molecular target: T6, CSF1R (Homo sapiens, UniProt P07333); assay: scanMAX Kinase panel (DiscoverX); type: binding; conditions: read-out: % Cont @ 1 uM
T6 construct: purchased DiscoverX scanMAX Kinase panel
Procedure, shortened: as §2

TEC = molecular target: T7, TEC (Homo sapiens, UniProt P42680); assay: scanMAX Kinase panel (DiscoverX); type: binding; conditions: read-out: % Cont @ 1 uM
T7 construct: purchased DiscoverX scanMAX Kinase panel
Procedure, shortened: as §2

FLT3(ITD) = assay: scanMAX Kinase panel (DiscoverX); type: binding
Procedure, shortened: as §2

RET(V804L) = molecular target: T8, RET(V804L) (Homo sapiens, UniProt P07949, V804L); assay: scanMAX Kinase panel (DiscoverX); type: binding; conditions: read-out: % Cont @ 1 uM
T8 construct: purchased DiscoverX scanMAX Kinase panel
Procedure, shortened: as §2

[2] = molecular target: T9, EGFR(L747-E749del, A750P) (Homo sapiens, UniProt P00533, A750P/DEL747-749); assay: scanMAX Kinase panel (DiscoverX); type: binding
T9 construct: purchased DiscoverX scanMAX Kinase panel
Procedure, shortened: as §2

FLT3 = molecular target: T10, FLT3 (Homo sapiens, UniProt P36888); assay: scanMAX Kinase panel (DiscoverX); type: binding; conditions: read-out: % Cont @ 1 uM
T10 construct: purchased DiscoverX scanMAX Kinase panel
Procedure, shortened: as §2

FGFR2 = molecular target: T11, FGFR2 (Homo sapiens, UniProt P21802); assay: scanMAX Kinase panel (DiscoverX); type: binding; conditions: read-out: % Cont @ 1 uM
T11 construct: purchased DiscoverX scanMAX Kinase panel
Procedure, shortened: as §2

STK35 = molecular target: T12, STK35 (Homo sapiens, UniProt Q8TDR2); assay: scanMAX Kinase panel (DiscoverX); type: binding; conditions: read-out: % Cont @ 1 uM
T12 construct: purchased DiscoverX scanMAX Kinase panel
Procedure, shortened: as §2

[3] = vehicle B (0.5% methyl cellulose)

T5 sequence (P45984 whole entry): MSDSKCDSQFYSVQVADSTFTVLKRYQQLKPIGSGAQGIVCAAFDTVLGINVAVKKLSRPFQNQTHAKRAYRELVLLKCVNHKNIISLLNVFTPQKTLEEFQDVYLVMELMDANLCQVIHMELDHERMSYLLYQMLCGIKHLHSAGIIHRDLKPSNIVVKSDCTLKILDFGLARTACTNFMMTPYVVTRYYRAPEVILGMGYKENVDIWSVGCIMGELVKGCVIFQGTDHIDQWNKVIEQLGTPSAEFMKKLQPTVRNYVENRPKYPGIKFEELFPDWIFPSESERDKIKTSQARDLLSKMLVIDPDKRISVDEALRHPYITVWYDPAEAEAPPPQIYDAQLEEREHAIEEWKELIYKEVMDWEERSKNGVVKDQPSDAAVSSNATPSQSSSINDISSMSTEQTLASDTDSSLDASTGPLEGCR
T11 sequence (P21802 22-821): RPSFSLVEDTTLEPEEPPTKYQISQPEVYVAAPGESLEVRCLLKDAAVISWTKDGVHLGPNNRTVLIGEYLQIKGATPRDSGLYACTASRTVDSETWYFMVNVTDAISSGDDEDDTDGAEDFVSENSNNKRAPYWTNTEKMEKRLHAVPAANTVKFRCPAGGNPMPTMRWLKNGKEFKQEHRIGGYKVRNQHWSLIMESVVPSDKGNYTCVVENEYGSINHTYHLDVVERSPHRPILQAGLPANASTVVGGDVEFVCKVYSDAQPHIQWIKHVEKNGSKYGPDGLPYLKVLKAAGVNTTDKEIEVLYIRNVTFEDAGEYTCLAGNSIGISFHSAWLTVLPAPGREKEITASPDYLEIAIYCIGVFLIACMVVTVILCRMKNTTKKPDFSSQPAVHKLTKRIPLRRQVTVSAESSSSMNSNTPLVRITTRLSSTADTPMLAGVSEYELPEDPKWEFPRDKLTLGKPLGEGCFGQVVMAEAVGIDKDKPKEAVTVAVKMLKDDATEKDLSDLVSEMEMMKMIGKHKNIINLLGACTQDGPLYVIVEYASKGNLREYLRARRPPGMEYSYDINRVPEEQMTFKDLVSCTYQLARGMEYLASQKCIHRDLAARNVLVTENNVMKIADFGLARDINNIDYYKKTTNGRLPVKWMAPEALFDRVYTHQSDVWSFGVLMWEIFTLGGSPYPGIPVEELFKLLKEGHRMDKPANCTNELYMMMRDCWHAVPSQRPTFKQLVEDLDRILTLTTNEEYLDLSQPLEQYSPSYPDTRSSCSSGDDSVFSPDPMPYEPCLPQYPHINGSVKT
T8 sequence (P07949 29-1114 V804L): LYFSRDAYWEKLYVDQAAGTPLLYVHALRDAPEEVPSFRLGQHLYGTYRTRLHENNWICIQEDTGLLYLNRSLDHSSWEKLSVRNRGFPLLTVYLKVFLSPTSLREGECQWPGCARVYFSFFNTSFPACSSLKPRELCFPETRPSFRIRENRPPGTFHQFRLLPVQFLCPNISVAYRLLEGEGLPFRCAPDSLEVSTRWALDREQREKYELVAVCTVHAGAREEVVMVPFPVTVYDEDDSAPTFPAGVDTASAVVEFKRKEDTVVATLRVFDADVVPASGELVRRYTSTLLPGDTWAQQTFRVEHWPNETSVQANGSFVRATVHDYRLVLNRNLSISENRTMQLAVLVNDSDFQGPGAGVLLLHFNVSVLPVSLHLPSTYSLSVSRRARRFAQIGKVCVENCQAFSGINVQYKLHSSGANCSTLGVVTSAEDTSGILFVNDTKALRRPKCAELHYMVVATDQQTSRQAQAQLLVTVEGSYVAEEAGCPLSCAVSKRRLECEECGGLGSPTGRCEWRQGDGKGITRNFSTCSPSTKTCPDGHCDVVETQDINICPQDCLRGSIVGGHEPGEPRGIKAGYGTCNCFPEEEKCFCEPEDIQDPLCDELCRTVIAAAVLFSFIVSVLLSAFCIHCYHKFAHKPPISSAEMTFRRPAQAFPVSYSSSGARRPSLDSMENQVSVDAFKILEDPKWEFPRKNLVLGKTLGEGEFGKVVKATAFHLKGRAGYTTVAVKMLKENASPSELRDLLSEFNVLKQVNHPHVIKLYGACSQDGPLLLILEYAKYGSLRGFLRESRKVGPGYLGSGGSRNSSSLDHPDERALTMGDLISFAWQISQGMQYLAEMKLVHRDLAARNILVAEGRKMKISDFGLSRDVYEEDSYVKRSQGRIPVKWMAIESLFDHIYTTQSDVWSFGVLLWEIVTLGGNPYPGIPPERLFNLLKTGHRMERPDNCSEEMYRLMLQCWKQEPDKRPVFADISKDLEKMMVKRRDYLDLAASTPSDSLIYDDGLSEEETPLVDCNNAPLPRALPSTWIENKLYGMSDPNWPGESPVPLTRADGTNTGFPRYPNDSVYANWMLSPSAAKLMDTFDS
T10 sequence (P36888 27-993): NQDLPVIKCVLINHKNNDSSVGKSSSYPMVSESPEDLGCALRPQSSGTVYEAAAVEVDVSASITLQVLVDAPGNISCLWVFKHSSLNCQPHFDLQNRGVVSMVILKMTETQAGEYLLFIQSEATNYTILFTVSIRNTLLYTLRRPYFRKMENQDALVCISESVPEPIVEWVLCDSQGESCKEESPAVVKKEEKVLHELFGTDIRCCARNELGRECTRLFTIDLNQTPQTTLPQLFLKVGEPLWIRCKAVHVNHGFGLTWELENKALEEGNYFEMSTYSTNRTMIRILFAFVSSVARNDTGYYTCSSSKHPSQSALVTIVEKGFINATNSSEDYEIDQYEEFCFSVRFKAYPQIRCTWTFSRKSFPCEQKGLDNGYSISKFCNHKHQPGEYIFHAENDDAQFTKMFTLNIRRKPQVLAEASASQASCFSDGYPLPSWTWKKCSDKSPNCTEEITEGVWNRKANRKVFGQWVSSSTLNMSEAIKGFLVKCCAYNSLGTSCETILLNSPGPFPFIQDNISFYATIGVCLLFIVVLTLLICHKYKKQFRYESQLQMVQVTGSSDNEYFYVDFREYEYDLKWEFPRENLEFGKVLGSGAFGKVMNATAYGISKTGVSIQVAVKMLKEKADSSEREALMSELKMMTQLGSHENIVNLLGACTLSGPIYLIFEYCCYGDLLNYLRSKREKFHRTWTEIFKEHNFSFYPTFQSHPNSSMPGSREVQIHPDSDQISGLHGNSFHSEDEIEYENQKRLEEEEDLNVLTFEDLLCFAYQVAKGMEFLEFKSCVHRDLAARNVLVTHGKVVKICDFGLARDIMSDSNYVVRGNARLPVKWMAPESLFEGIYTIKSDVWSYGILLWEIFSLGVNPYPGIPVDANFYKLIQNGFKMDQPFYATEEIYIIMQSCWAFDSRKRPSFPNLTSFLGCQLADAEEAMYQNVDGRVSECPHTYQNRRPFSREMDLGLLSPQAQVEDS
T1 sequence (Q9Y4K4 whole entry): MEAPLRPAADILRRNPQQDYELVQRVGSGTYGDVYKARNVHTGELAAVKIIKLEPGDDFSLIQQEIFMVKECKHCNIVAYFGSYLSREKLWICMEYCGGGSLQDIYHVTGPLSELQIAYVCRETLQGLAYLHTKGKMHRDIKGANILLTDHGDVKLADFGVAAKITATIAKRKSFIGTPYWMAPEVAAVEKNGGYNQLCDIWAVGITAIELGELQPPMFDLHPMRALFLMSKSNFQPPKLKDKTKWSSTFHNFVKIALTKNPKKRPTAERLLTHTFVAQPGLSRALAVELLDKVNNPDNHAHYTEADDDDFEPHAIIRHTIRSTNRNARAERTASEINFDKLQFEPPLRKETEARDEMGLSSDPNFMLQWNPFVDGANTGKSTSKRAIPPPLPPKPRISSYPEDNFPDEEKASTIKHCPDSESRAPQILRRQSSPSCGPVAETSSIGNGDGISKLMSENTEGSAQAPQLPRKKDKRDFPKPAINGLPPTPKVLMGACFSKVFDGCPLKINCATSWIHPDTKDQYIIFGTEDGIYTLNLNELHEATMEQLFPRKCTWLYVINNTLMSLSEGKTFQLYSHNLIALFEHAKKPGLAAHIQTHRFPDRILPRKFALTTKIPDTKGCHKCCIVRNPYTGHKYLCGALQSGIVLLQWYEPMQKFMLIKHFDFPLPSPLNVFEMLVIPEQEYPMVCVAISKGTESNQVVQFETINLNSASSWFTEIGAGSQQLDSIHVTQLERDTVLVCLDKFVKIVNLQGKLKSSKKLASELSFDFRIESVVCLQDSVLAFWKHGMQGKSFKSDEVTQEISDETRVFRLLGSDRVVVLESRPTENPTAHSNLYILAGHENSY
T7 sequence (P42680 whole entry): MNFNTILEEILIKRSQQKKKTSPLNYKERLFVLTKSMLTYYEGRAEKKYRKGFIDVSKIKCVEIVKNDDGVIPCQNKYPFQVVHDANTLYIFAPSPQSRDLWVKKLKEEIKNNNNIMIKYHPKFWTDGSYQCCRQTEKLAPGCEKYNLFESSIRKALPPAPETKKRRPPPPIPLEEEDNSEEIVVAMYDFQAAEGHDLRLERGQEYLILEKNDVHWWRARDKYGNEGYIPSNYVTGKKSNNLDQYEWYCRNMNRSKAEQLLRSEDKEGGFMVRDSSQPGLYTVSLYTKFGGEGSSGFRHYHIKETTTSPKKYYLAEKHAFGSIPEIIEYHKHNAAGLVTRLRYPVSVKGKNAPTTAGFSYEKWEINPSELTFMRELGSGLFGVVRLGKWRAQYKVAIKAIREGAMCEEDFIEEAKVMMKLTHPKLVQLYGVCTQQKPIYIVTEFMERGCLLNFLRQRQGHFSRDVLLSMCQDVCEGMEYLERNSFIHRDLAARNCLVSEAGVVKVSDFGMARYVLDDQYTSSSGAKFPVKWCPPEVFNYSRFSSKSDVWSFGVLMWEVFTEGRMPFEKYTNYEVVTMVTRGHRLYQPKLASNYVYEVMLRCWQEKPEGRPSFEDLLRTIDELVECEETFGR

For Cc1cn(-c2cc(NC(=O)c3cc(C#Cc4cnc5c(Nc6cnn(C)c6)cccn45)c(C)cc3F)cc(C(C)(C)C#N)c2)cn1 [Example 1, N-(3-(2-cyanopropane-2-yl)-5-(4-methyl-1H-imidazol-1-yl)phenyl)-2-fluoro-4-methyl-5-((8-((1-methyl-1H-pyrazol-4-yl)amino)imidazo[1,2-a]pyridin-3-yl)ethynyl)benzamide], the AUC(0-t) ([1]; vehicle A (NMP:PEG400=5:95)) was 138000 ng·h/mL, the Cmax ([1]; vehicle A (NMP:PEG400=5:95)) was 8570 ng/mL and the half-life ([1]; vehicle A (NMP:PEG400=5:95)) was 2.5 h. For the same compound, the AUC(0-t) [1, 3] was 80300 ng·h/mL, the Cmax [1, 3] was 10000 ng/mL and the half-life [1, 3] was 2.4 h. For the same compound, the GI50 (KOPM28 cells) was less than 10 nM, the GI50 (T315I-KOPM28 cells) was 100 nM and the GI50 (TCCS cells) was less than 10 nM. It also gave a GI50 (T315I-TCCS cells) of less than 10 nM, a remaining binding at 1 µM (MAP4K5) of 0.95% and a remaining binding at 1 µM (CDKL2) of 0.7%. For the same compound, the “% Cont @ 1 uM” value (EGFR(L861Q)) was 6.7%, the remaining binding at 1 µM (RIPK1) was 1.6% and the “% Cont @ 1 uM” value (JNK2) was 12%. The remaining binding at 1 µM (CSF1R) was 0.2%, the remaining binding at 1 µM (TEC) was 1.3% and the “% Cont @ 1 uM” value (FLT3(ITD)) was 1.1%. The remaining binding at 1 µM (RET(V804L)) was 0.6%, the “% Cont @ 1 uM” value [2] was 11% and the remaining binding at 1 µM (FLT3) was 2%. The remaining binding at 1 µM (FGFR2) was 30% and the remaining binding at 1 µM (STK35) was 10%.

Cc1cn(-c2cc(NC(=O)c3cc(C#Cc4cnc5c(Nc6cnn(C)c6)cccn45)c(C)cc3F)cc(C(F)(F)F)c2)cn1 [Example 4, 2-fluoro-4-methyl-N-(3-(4-methyl-1H-imidazol-1-yl)-5-(trifluoromethyl)phenyl)-5-((8-((1-methyl-1H-pyrazol-4-yl)amino)imidazo[1,2-a]pyridin-3-yl)ethynyl)benzamide] gave an AUC(0-t) [1, 3] of 30400 ng·h/mL, a Cmax [1, 3] of 3360 ng/mL and a half-life [1, 3] of 2.1 h. For the same compound, the GI50 (KOPM28 cells) was 100 nM, the GI50 (T315I-KOPM28 cells) was 100 nM and the GI50 (TCCS cells) was less than 10 nM. It also gave a GI50 (T315I-TCCS cells) of 100 nM, a remaining binding at 1 µM (MAP4K5) of 38% and a remaining binding at 1 µM (CDKL2) of 14%. For the same compound, the “% Cont @ 1 uM” value (EGFR(L861Q)) was 53%, the remaining binding at 1 µM (RIPK1) was 44% and the “% Cont @ 1 uM” value (JNK2) was 81%. The remaining binding at 1 µM (CSF1R) was 2.5%, the remaining binding at 1 µM (TEC) was 46% and the “% Cont @ 1 uM” value (FLT3(ITD)) was 6.6%. For the same compound, the remaining binding at 1 µM (RET(V804L)) was 6%, the “% Cont @ 1 uM” value [2] was 24% and the remaining binding at 1 µM (FLT3) was 1.9%. The remaining binding at 1 µM (FGFR2) was 61% and the remaining binding at 1 µM (STK35) was 94%.
